Activity calls are given as the source filed them. The calls are words filed in the database; no cut-off is given here.
Tests used:
H9c2 [1] = assay: Protection against H2O2 induced myocardial cell injury in rat H9c2 cells assessed as fold change at 10 uM pretreated for 24 hrs followed by H2O2 exposure and measured after 1.5 hrs relative to H2O2 alone; assay type: functional; conditions: time 25.5 hrs
H9c2 [2] = assay: Protection against H2O2 induced myocardial cell injury in rat H9c2 cells at 10 uM pretreated for 24 hrs followed by H2O2 exposure and measured after 1.5 hrs (reference value: 17.91 to 57.32%); assay type: functional; conditions: time 25.5 hrs
NCI-H460 = assay: Antiproliferative activity against human NCI-H460 cells assessed as inhibition of cell growth by MTT assay
SMMC-7721 = assay: Antiproliferative activity against human SMMC-7721 cells assessed as inhibition of cell growth by MTT assay
PC-3 = assay: Antiproliferative activity against human PC-3 cells assessed as inhibition of cell growth by MTT assay
PANC-1 = assay: Antiproliferative activity against human PANC-1 cells assessed as inhibition of cell growth by MTT assay
HCT-116 = assay: Antiproliferative activity against human HCT-116 cells assessed as inhibition of cell growth by MTT assay
TE-1 = assay: Antiproliferative activity against human TE-1 cells assessed as inhibition of cell growth by MTT assay
MGC-803 = assay: Antiproliferative activity against human MGC-803 cells assessed as inhibition of cell growth by MTT assay
H9c2 [3] = assay: Protection against H2O2 induced myocardial cell injury in rat H9c2 cells at 5 uM pretreated for 24 hrs followed by H2O2 exposure and measured after 1.5 hrs (reference value: 41.79+/-1.59%); assay type: functional; conditions: time 25.5 hrs
Mus musculus [4] = assay: Cardioprotective activity against myocardial ischemia/reperfusion induced C57BL/6J mouse model assessed as reduction in ST-segment elevation at 10 mg/kg; assay type: functional, organism-based
Mus musculus [5] = assay: Cardioprotective activity against myocardial ischemia/reperfusion induced C57BL/6J mouse model assessed as effect on infarct size of mouse heart at 10 mg/kg by TTC staining based analysis; assay type: functional, organism-based

Structure (SMILES): Cc1ccccc1-c1cc(NCc2ccc(C(=O)NO)cc2)c2nccn2c1
- fold change (FC) (H9c2 [1]): 1.4
- Activity (H9c2 [2]): 67.83%

Structure (SMILES): COc1cc(-c2cc(C(=O)NCCN3CCN(C(=O)OC(C)(C)C)CC3)c3ccccc3n2)cc(OC)c1OC
- fold change (FC) (H9c2 [1]): 1.19
- Activity (H9c2 [2]): 53.37%

Structure (SMILES): Cc1ccc(-c2cc(CNc3ccc(C(=O)O)cc3)c3nccn3c2)cc1
- fold change (FC) (H9c2 [1]): 1.01
- Activity (H9c2 [2]): 18.02%

Structure (SMILES): COc1cc(-c2cc(C(=O)Nc3ccccc3)c3nccn3c2)cc(OC)c1OC
- fold change (FC) (H9c2 [1]): 1.23
- Activity (H9c2 [2]): 61.69%

Structure (SMILES): O=C(NO)c1ccc(CNc2cc(-c3ccc(F)cc3)cn3ccnc23)cc1
- fold change (FC) (H9c2 [1]): 1.86
- Activity (H9c2 [2]): 90.19%

Structure (SMILES): Cc1ccc(-c2cc(CNc3ccc(C(=O)NNc4ccccc4F)cc3)c3nccn3c2)cc1
- fold change (FC) (H9c2 [1]): 1.19
- Activity (H9c2 [2]): 35.98%

Structure (SMILES): Cc1ccccc1-c1cc(CNc2ccc(C(=O)NO)cc2)c2nccn2c1
- fold change (FC) (H9c2 [1]): 1.38
- Activity (H9c2 [2]): 67.73%

Structure (SMILES): Cc1ccccc1-c1cc(C(=O)Nc2ccc(C(=O)NO)cc2)c2nccn2c1
- fold change (FC) (H9c2 [1]): 1.57
- Activity (H9c2 [2]): 56.16%

Structure (SMILES): O=C(NO)c1ccc(NCc2cc(-c3cccc(F)c3)cn3ccnc23)cc1
- fold change (FC) (H9c2 [1]): 1.46
- Activity (H9c2 [2]): 53.76%

Structure (SMILES): Cc1cccc(-c2cc(C(=O)Nc3ccc(C(=O)NO)cc3)c3nccn3c2)c1
- fold change (FC) (H9c2 [1]): 2.19
- Activity (H9c2 [2]): 78.26%

Structure (SMILES): O=C(NO)c1ccc(CNc2cc(-c3ccccc3F)cn3ccnc23)cc1
- fold change (FC) (H9c2 [1]): 1.13
- Activity (H9c2 [2]): 54.74%

Structure (SMILES): Cc1ccc(-c2cc(CNc3ccc(C(=O)NO)cc3F)c3nccn3c2)cc1
- fold change (FC) (H9c2 [1]): 1.36
- Activity (H9c2 [2]): 52.82%

Structure (SMILES): Cc1ccc(-c2cc(CNc3ccc(C(=O)NO)cc3)c3nccn3c2)cc1
- fold change (FC) (H9c2 [1]): 1.93
- Activity (H9c2 [2]): 68.72%

Structure (SMILES): COc1cc(-c2cc(C(=O)NCCN3CCOCC3)c3nccn3c2)cc(OC)c1OC
- fold change (FC) (H9c2 [1]): 0.63
- Activity (H9c2 [2]): 36.19%

Structure (SMILES): O=C(NO)c1ccc(NC(=O)c2cc(-c3ccc(F)cc3)cn3ccnc23)cc1
- fold change (FC) (H9c2 [1]): 2.11
- Activity (H9c2 [2]): 74.82%

Structure (SMILES): Cc1ccc(-c2cc(CNc3ccc(C(=O)NOC4CCCCO4)cc3)c3nccn3c2)cc1 (configuration not stated)
- fold change (FC) (H9c2 [1]): 1.69
- Activity (H9c2 [2]): 59.02%

Structure (SMILES): Cc1cccc(-c2cc(C(=O)NCc3ccc(C(=O)NO)cc3)c3nccn3c2)c1
- IC50 (NCI-H460): > 10 µM
- IC50 (SMMC-7721): 1.98 µM
- IC50 (PC-3): > 10 µM
- IC50 (PANC-1): > 10 µM
- Activity (H9c2 [2]): 74.81%
- IC50 (HCT-116): 5.7 µM
- IC50 (TE-1): 2.77 µM
- IC50 (MGC-803): 3.47 µM

Structure (SMILES): Cc1ccccc1-c1cc(C(=O)NCc2ccc(C(=O)NO)cc2)c2nccn2c1
- IC50 (NCI-H460): 8.67 µM
- IC50 (SMMC-7721): 2.6 µM
- IC50 (PC-3): > 10 µM
- IC50 (PANC-1): > 10 µM
- Activity (H9c2 [2]): 63.03%
- IC50 (HCT-116): 9.49 µM
- IC50 (TE-1): 2.56 µM
- IC50 (MGC-803): 1.31 µM

Structure (SMILES): COc1ccccc1NC(=O)c1ccc(NCc2cc(-c3ccc(C)cc3)cn3ccnc23)cc1
- fold change (FC) (H9c2 [1]): 1.61
- Activity (H9c2 [2]): 48.69%

Structure (SMILES): Cc1ccc(-c2cc(CNc3ccc(C(=O)NO)cc3C)c3nccn3c2)cc1
- fold change (FC) (H9c2 [1]): 1.51
- Activity (H9c2 [2]): 53.88%

Structure (SMILES): Cc1ccc(-c2cc(C(=O)NCc3ccc(C(=O)NO)cc3)c3nccn3c2)cc1
- IC50 (NCI-H460): > 10 µM
- IC50 (SMMC-7721): 1.85 µM
- IC50 (PC-3): > 10 µM
- IC50 (PANC-1): 6.15 µM
- Activity (H9c2 [2]): 84.83%
- IC50 (HCT-116): > 10 µM
- Activity (H9c2 [3]): 83.58%
- IC50 (TE-1): 5.54 µM
- IC50 (MGC-803): 1.17 µM

Structure (SMILES): O=C(NO)c1ccc(NCc2cc(-c3cccs3)cn3ccnc23)cc1
- fold change (FC) (H9c2 [1]): 1.87
- Activity (H9c2 [2]): 68.84%

Structure (SMILES): Cc1ccc(-c2cc(CNc3ccc(C(=O)Nc4ccccc4N)cc3)c3nccn3c2)cc1
- fold change (FC) (H9c2 [1]): 1.21
- Activity (H9c2 [2]): 21.76%

Structure (SMILES): O=C(NO)c1ccc(CNc2cc(-c3cccc(F)c3)cn3ccnc23)cc1
- fold change (FC) (H9c2 [1]): 1.5
- Activity (H9c2 [2]): 72.58%

Structure (SMILES): O=C(NO)c1ccc(NCc2cc(-c3ccc(F)cc3)cn3ccnc23)cc1
- fold change (FC) (H9c2 [1]): 1.86
- Activity (H9c2 [2]): 66.3%

Structure (SMILES): Cc1ccc(-c2cc(CNc3ccc(C(=O)NN)cc3)c3nccn3c2)cc1
- fold change (FC) (H9c2 [1]): 2.63
- Activity (H9c2 [2]): 85.94%

Structure (SMILES): Cc1ccc(-c2cc(C(=O)Nc3ccc(C(=O)NO)cc3)c3nccn3c2)cc1
- fold change (FC) (H9c2 [1]): 1.84
- Activity (H9c2 [2]): 65.82%

Structure (SMILES): O=C(CCCCCCC(=O)Nc1ccccc1)NO [VORINOSTAT]
- Activity (Mus musculus [4]): Active
- Activity (Mus musculus [5]): inactive
- Activity (H9c2 [2]): 71.54%
- IC50 (TE-1): 2.25 µM

Structure (SMILES): Cc1ccc(-c2cc(CNc3ccc(C(=O)NNC(=O)OC(C)(C)C)cc3)c3nccn3c2)cc1
- fold change (FC) (H9c2 [1]): 2.12
- Activity (H9c2 [2]): 64.23%

Structure (SMILES): Cc1ccc(-c2cc(CNc3ccc(C(=O)NO)cn3)c3nccn3c2)cc1
- fold change (FC) (H9c2 [1]): 1.27
- Activity (H9c2 [2]): 58.82%

Structure (SMILES): COc1ccc(-c2cc(CNc3ccc(C(=O)NO)cc3)c3nccn3c2)c(OC)c1
- fold change (FC) (H9c2 [1]): 1.52
- Activity (H9c2 [2]): 56.04%

Structure (SMILES): Cc1ccc(-c2cc(CNc3ccc(C(=O)NNC(C)C)cc3)c3nccn3c2)cc1
- fold change (FC) (H9c2 [1]): 1.82
- Activity (H9c2 [2]): 54.92%

Structure (SMILES): Cc1ccc(-c2cc(CNc3ccc(C(=O)NO)cc3Cl)c3nccn3c2)cc1
- fold change (FC) (H9c2 [1]): 2.79
- Activity (H9c2 [2]): 108.57%

Structure (SMILES): COc1cc(-c2cc(C(=O)NCCN3CCN(C(=O)OC(C)(C)C)CC3)c3nccn3c2)cc(OC)c1OC
- fold change (FC) (H9c2 [1]): 1.1
- Activity (H9c2 [2]): 49.54%

Structure (SMILES): Cc1ccc(-c2cc(NCc3ccc(C(=O)NO)cc3)c3nccn3c2)cc1
- fold change (FC) (H9c2 [1]): 2.08
- Activity (H9c2 [2]): 74.15%

Structure (SMILES): COc1ccccc1CNC(=O)c1ccc(NCc2cc(-c3ccc(C)cc3)cn3ccnc23)cc1
- fold change (FC) (H9c2 [1]): 1.88
- Activity (H9c2 [2]): 56.7%

Structure (SMILES): CCc1ccccc1-c1cc(CNc2ccc(C(=O)NO)cc2)c2nccn2c1
- fold change (FC) (H9c2 [1]): 2.01
- Activity (H9c2 [2]): 50.13%

Structure (SMILES): O=C(NO)c1ccc(NCc2cc(-c3cccc(Cl)c3)cn3ccnc23)cc1
- IC50 (NCI-H460): > 10 µM
- IC50 (SMMC-7721): 2.99 µM
- IC50 (PC-3): > 10 µM
- IC50 (PANC-1): > 10 µM
- Activity (H9c2 [2]): 73.84%
- IC50 (HCT-116): > 10 µM
- IC50 (TE-1): > 10 µM
- IC50 (MGC-803): 3.82 µM

Structure (SMILES): Cc1ccc(-c2cc(CNc3ccc(C(=O)N4CCOCC4)cc3)c3nccn3c2)cc1
- fold change (FC) (H9c2 [1]): 2.05
- Activity (H9c2 [2]): 62.08%

Structure (SMILES): Cc1cccc(-c2cc(NCc3ccc(C(=O)NO)cc3)c3nccn3c2)c1
- fold change (FC) (H9c2 [1]): 1.01
- Activity (H9c2 [2]): 49.08%

Structure (SMILES): CCc1ccc(-c2cc(CNc3ccc(C(=O)NO)cc3)c3nccn3c2)cc1
- fold change (FC) (H9c2 [1]): 1.73
- Activity (H9c2 [2]): 63.8%

Structure (SMILES): Cc1cccc(-c2cc(CNc3ccc(C(=O)NO)cc3)c3nccn3c2)c1
- fold change (FC) (H9c2 [1]): 1.36
- Activity (H9c2 [2]): 50.3%

Structure (SMILES): CC(C)c1ccc(-c2cc(CNc3ccc(C(=O)NO)cc3)c3nccn3c2)cc1
- fold change (FC) (H9c2 [1]): 1.47
- Activity (H9c2 [2]): 54.12%

Structure (SMILES): Cc1ccc(-c2cc(CNc3ccc(C(=O)NNc4ccccc4)cc3)c3nccn3c2)cc1
- fold change (FC) (H9c2 [1]): 2.14
- Activity (H9c2 [2]): 64.68%

Structure (SMILES): COc1cc(-c2cc(C(=O)NCc3ccccc3)c3nccn3c2)cc(OC)c1OC
- fold change (FC) (H9c2 [1]): 0.99
- Activity (H9c2 [2]): 56.67%

Structure (SMILES): COc1cc(-c2cc(C(=O)N3CCOCC3)c3nccn3c2)cc(OC)c1OC
- fold change (FC) (H9c2 [1]): 0.73
- Activity (H9c2 [2]): 34.81%

Structure (SMILES): COc1ccccc1-c1cc(CNc2ccc(C(=O)NO)cc2)c2nccn2c1
- fold change (FC) (H9c2 [1]): 1.9
- Activity (H9c2 [2]): 67.63%

Structure (SMILES): Cc1ccc(-c2cc(CNc3ccc(C(=O)NNC(C)(C)C)cc3)c3nccn3c2)cc1
- fold change (FC) (H9c2 [1]): 2.17
- Activity (H9c2 [2]): 65.75%

Structure (SMILES): O=C(NO)c1ccc(NCc2cc(-c3cccc(Br)c3)cn3ccnc23)cc1
- IC50 (NCI-H460): 9.44 µM
- IC50 (SMMC-7721): 3.18 µM
- IC50 (PC-3): > 10 µM
- IC50 (PANC-1): > 10 µM
- Activity (H9c2 [2]): 98.49%
- IC50 (HCT-116): > 10 µM
- IC50 (TE-1): 6.23 µM
- IC50 (MGC-803): 5.07 µM

Structure (SMILES): COc1ccc(-c2cc(CNc3ccc(C(=O)NO)cc3)c3nccn3c2)cc1
- fold change (FC) (H9c2 [1]): 1.56
- Activity (H9c2 [2]): 57.47%

Structure (SMILES): O=C(NO)c1ccc(NCc2cc(-c3ccccc3Cl)cn3ccnc23)cc1
- fold change (FC) (H9c2 [1]): 1.6
- Activity (H9c2 [2]): 57.08%

Structure (SMILES): O=C(NO)c1ccc(NCc2cc(-c3ccccc3F)cn3ccnc23)cc1
- fold change (FC) (H9c2 [1]): 1.55
- Activity (H9c2 [2]): 57.23%
